pIC50: −log10 of the molar value. Active and inactive are the calls of the source. The rule behind the calls is not given here.
Legend:
[1] = test system: B16-F10; assay: Antimelanogenic activity in alpha-MSH-stimulated mouse B16F10 cells pretreated for 30 mins before alpha-MSH challenge measured after 48 hrs by ELISA reader; assay type: functional, cell-based
[2] = test system: B16-F10; assay: Cytotoxicity against mouse B16F10 cells up to 200 ug/mL; assay type: cell-based
[3] = target: T1, Tyrosinase (Agaricus bisporus, UniProt O42713)
T1 sequence (O42713 whole entry): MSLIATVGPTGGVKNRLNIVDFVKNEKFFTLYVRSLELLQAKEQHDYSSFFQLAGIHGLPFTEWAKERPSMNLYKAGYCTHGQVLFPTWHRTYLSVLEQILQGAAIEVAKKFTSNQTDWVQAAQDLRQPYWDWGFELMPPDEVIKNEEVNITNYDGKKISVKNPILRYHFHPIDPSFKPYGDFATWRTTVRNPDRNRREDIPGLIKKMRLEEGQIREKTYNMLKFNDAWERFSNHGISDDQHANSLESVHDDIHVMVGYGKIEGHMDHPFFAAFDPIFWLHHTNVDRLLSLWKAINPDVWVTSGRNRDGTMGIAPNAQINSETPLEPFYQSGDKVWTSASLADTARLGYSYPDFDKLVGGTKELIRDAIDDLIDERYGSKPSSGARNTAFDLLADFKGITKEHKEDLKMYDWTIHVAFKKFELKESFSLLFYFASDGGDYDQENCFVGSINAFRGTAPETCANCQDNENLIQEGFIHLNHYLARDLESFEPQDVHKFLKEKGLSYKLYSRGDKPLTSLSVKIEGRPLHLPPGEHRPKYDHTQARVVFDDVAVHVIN
Description: Inhibition of mushroom tyrosinase using L-DOPA after 10 mins by ELISA reader

[4] = test system: B16-F10; assay: Decrease in tyrosinase mRNA expression in alpha-MSH-stimulated mouse B16F10 cells after 48 hrs by RT-PCR analysis; assay type: functional, cell-based

Q: Which Activity [1] does the source give for `COc1cc([C@H]2c3c(cc(OC)c(O)c3OC)C[C@@H](CO)[C@H]2CO[C@@H]2O[C@H](CO)[C@@H](O)[C@H](O)[C@H]2O)cc(OC)c1O` here?
A: Its Activity is “Active”.

Q: What about the Activity [2] of the same compound?
A: The Activity was “Non-toxic”.

Q: And the pIC50 [3]?
A: Its pIC50 is < 3.00.

Q: What does the source list for `COc1cc([C@@H]2c3c(cc(OC)c(O)c3OC)C[C@H](CO)[C@@H]2CO[C@@H]2O[C@H](CO)[C@@H](O)[C@H](O)[C@H]2O)cc(OC)c1O`?
A: Activity [1]: Active; Activity [2]: Non-toxic; pIC50 [3]: < 3.00

Q: With `COc1cc([C@@H]2c3c(cc(OC)c(O)c3OC)C[C@@H](CO)[C@H]2CO[C@@H]2O[C@H](CO)[C@@H](O)[C@H](O)[C@H]2O)cc(OC)c1O` as the compound, how does the Activity [1] read?
A: Its Activity is “Active”.

Q: And the Activity [2]?
A: Its Activity is “Non-toxic”.

Q: And the pIC50 [3]?
A: The pIC50 was < 3.00.

Q: Which results are given for `COc1cc([C@H]2c3c(cc(OC)c(O)c3OC)C[C@H](CO)[C@@H]2CO[C@@H]2O[C@H](CO)[C@@H](O)[C@H](O)[C@H]2O)cc(OC)c1O`?
A: Activity [1]: Active; Activity [2]: Non-toxic; pIC50 [3]: < 3.00

Q: What does the source list for `COc1cc(/C=C/C(=O)NCCc2ccc(O)c(OC)c2)ccc1O`?
A: Activity [1]: Active; Activity [2]: Non-toxic; pIC50 [3]: < 3.00

Q: How did the Activity [1] turn out when `COc1cc2c(cc1OC)C(=O)N(C)CC2` was run?
A: Its Activity is “Active”.

Q: What about the Activity [2] of the same compound?
A: Its Activity is “Non-toxic”.

Q: What about the pIC50 [3] of the same compound?
A: Its pIC50 is < 3.00.

Q: What does the source list for `CC1=CC(=O)CC(C)(C)[C@@H]1/C=C/[C@@H](C)O[C@@H]1O[C@H](CO)[C@@H](O)[C@H](O)[C@H]1O[C@@H]1O[C@@H](C)[C@H](O)[C@@H](O)[C@H]1O` [GUSANLUNGIONOSIDE A]?
A: Activity [1]: Active; Activity [2]: Non-toxic; Activity [4]: Active; pIC50 [3]: 3.82

Q: With `CC1=CC(=O)CC(C)(C)[C@H]1/C=C/[C@@H](C)O[C@@H]1O[C@H](CO)[C@@H](O)[C@H](O)[C@H]1O[C@@H]1O[C@@H](C)[C@H](O)[C@@H](O)[C@H]1O` [GUSANLUNGIONOSIDE B] as the compound, how does the Activity [1] read?
A: Its Activity is “Active”.

Q: What about the Activity [2] of the same compound?
A: Its Activity is “Non-toxic”.

Q: What about the Activity [4] of the same compound?
A: Its Activity is “Active”.

Q: And the pIC50 [3]?
A: Its pIC50 is 3.80.

Q: Which results are given for `CC1=CC(=O)CC(C)(C)[C@@H]1CC[C@@H](C)O[C@@H]1O[C@H](CO)[C@@H](O)[C@H](O)[C@H]1O[C@@H]1O[C@@H](C)[C@H](O)[C@@H](O)[C@H]1O` [GUSANLUNGIONOSIDE C]?
A: Activity [1]: Active; Activity [2]: Non-toxic; Activity [4]: Active; pIC50 [3]: 3.70

Q: How did the Activity [1] turn out when `CC1=CC(=O)CC(C)(C)[C@H]1CC[C@@H](C)O[C@@H]1O[C@H](CO)[C@@H](O)[C@H](O)[C@H]1O[C@@H]1O[C@@H](C)[C@H](O)[C@@H](O)[C@H]1O` [GUSANLUNGIONOSIDE D] was run?
A: The Activity was “Active”.

Q: And the Activity [2]?
A: The Activity was “Non-toxic”.

Q: What about the Activity [4] of the same compound?
A: Its Activity is “Active”.

Q: And the pIC50 [3]?
A: The pIC50 was 3.72.

Q: Which Activity [1] does the source give for `O=C(/C=C/c1ccc(O)cc1)NCCc1ccc(O)cc1` [N-P-COUMAROYL TYRAMINE] here?
A: Its Activity is “Active”.

Q: And the Activity [2]?
A: The Activity was “Non-toxic”.

Q: What about the pIC50 [3] of the same compound?
A: The pIC50 was < 3.00.

Q: For `OCc1ccc(O)cc1` [PARAHYDROXYBENZYL ALCOHOL], which Activity [1] is on record?
A: The Activity was “Active”.

Q: And the Activity [2]?
A: The Activity was “Non-toxic”.

Q: And the pIC50 [3]?
A: Its pIC50 is < 3.00.

Q: What does the source list for `COc1cc([C@H]2OC[C@H]3[C@@H]2CO[C@@H]3c2cc(OC)c(O)c(OC)c2)cc(OC)c1O` [SYRINGARESINOL]?
A: Activity [1]: Active; Activity [2]: Non-toxic; pIC50 [3]: < 3.00

Q: How did the Activity [1] turn out when `COc1cc2c(cc1O)C(=O)N(C)CC2` [THALIFOLINE] was run?
A: Its Activity is “Active”.

Q: And the Activity [2]?
A: The Activity was “Non-toxic”.

Q: What about the pIC50 [3] of the same compound?
A: Its pIC50 is < 3.00.

— ChEMBL document CHEMBL1811762, “Gusanlungionosides A-D, potential tyrosinase inhibitors from Arcangelisia gusanlung” (J Nat Prod, 2011)
